# Experimental data taken from BindingDB's records for doi:10.1146/annurev.pa.30.040190.003221 (National Institute For Medical Research, 1990).
# Key:
# [1] = target: T1, Muscarinic acetylcholine receptor M2 (Rattus norvegicus, UniProt P10980)
# T1 sequence (P10980 whole entry): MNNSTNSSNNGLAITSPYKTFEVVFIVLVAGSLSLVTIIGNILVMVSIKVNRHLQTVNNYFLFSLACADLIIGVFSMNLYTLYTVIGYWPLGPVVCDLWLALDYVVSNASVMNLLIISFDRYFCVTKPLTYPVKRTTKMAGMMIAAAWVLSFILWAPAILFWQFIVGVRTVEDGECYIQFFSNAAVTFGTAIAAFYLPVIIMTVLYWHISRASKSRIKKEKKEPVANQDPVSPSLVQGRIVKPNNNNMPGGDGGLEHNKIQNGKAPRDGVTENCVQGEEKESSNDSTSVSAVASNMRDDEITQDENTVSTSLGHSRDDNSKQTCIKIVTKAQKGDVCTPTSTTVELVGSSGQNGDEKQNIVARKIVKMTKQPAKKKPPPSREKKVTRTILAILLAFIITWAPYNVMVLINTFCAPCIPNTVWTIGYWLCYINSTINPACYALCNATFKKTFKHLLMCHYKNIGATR
# [2] = target: T2, Muscarinic acetylcholine receptor M1 (Rattus norvegicus, UniProt P08482)
# T2 sequence (P08482 whole entry): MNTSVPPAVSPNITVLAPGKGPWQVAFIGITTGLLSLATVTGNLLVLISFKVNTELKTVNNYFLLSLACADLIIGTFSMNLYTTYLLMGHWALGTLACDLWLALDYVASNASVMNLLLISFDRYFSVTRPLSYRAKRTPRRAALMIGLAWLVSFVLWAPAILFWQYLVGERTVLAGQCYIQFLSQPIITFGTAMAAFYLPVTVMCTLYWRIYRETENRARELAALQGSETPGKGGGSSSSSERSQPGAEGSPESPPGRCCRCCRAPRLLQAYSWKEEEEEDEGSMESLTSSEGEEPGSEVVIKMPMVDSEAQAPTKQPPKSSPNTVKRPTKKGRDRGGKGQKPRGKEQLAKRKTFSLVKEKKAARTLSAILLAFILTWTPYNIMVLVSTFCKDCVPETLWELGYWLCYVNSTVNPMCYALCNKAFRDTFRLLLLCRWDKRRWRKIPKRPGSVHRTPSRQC
# [3] = target: Muscarinic acetylcholine receptor M3 (Rattus norvegicus, UniProt P08483)
# Chain of Muscarinic acetylcholine receptor M3 (P08483 whole entry): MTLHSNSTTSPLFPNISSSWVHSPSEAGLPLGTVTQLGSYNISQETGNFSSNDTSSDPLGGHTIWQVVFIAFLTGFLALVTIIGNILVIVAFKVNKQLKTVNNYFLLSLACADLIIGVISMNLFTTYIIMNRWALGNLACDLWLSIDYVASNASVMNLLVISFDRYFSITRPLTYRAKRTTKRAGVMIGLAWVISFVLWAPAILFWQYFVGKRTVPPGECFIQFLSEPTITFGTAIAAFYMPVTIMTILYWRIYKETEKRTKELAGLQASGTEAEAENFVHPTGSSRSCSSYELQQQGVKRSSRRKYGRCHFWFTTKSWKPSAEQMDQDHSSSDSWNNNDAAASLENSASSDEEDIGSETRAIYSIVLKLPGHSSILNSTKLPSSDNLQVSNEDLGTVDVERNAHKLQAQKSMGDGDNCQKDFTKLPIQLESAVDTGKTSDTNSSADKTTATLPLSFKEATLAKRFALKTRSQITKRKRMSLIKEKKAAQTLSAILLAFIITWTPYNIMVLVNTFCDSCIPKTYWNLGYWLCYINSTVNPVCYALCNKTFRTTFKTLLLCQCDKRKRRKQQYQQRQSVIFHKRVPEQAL
Ki [2] [nM],Ki [3] [nM],SMILES,Ki [1] [nM]
,316,COc1ccccc1CNCCCCCCNCCCCCCCCNCCCCCCNCc1ccccc1OC [METHOCTRAMINE],
398,1260,"CCN(CC)CC1CCCCN1CC(=O)N1c2ccccc2C(=O)Nc2cccnc21 (centres undefined) [(AF-DX 116) 11-[2-(2-Diethylaminomethyl-piperidin-1-yl)-acetyl]-5,11-dihydro-benzo[e]pyrido[3,2-b][1,4]diazepin-6-one]",
12.6,6.31,CC(=O)N[C@H]1CO[C@H](COS(=O)(=O)O)[C@@H](O[C@@H]2O[C@H](C(=O)O)[C@@H](O[C@H]3O[C@H](CO)[C@@H](O[C@@H]4O[C@@H](C(=O)O)[C@@H](O)[C@H](O)[C@H]4OS(=O)(=O)O)[C@H](OS(=O)(=O)O)[C@H]3NS(=O)(=O)O)[C@H](O)[C@H]2OS(=O)(=O)O)[C@@H]1O [CAS_9050-30-0],126

SMILES,Ki [2] [nM],Ki [3] [nM],Ki [1] [nM]
C[C@H]1OC(=O)C2C[C@H]3CCCC[C@@H]3[C@@H](/C=C/[C@@H]3CCC[C@H](C)N3C)C21 (some centres undefined) [HIMBACINE],100,126,7.94
